Earlier results in patent EP4088834A1, “INORGANIC COATED SAND” (Kao Corporation, priority 2020, dated 2021).

Settings: 25°C

In the case of `[O]=[Ca]` [calcium oxide], the solubility in water is listed as 1190 µg/mL.
